Values belong to the compound of their own block, whether it stands above or below them.
Legend:
[1] = system: SA1 (DNA, aptamer) ACGACCTGACTTCCCATGGGATCTTCACTTAAATGGTCGT; test: ThT fluorescence displacement titration; conditions: 100 mM Na+, pH 6.0, 1 μM DNA; for binding: 1 mM Mg2+, MES, 2 μM thioflavin T, 30 μM compound
[2] = system: SA1 (DNA, aptamer) ACGACCTGACTTCCCATGGGATCTTCACTTAAATGGTCGT; test: fluorescence enhancement; conditions: 100 mM Na+, 1 mM Mg2+ (Figure 2 legend; methods: 5 mM); 10 mM MES, pH 6.0; 1 μM DNA, 2 μM thioflavin T; described as nonspecific
[3] = system: SA2 (DNA, aptamer) ACGACGGGGGACCGGAAACAAGTGCAAAACGCTTCGTCGT; test: ThT fluorescence displacement titration; conditions: 100 mM Na+, 1 mM Mg2+ (Figure 2 legend; methods: 5 mM); 10 mM MES, pH 6.0; apparent; tracer 2 μM thioflavin T; signal change only about 20%
[4] = system: SA1 (DNA, aptamer) ACGACCTGACTTCCCATGGGATCTTCACTTAAATGGTCGT; test: ITC; conditions: 100 mM Na+, 5 mM Mg2+; 10 mM MES, pH 6.0, 25°C; one-site fit; 20 μM aptamer

binding [1]: no
Structure (SMILES): CC(=O)Oc1ccccc1C(=O)O

binding [2]: yes
Structure (SMILES): Cc1ccc2c(c1)sc(-c1ccc(N(C)C)cc1)[n+]2C

binding [1]: weak
Structure (SMILES): O=C(O)c1ccc(O)cc1

Kd [3]: 11 µM
Kd [4]: 26.7 ± 5.6 µM
Kd ([1]; 1 mM Mg2+ (Figure 2 legend; methods: 5 mM), 10 mM MES, apparent, tracer 2 μM thioflavin T): 5.8 µM
Structure (SMILES): O=C(O)c1ccccc1O

— article PMC12118186 (2023)
